Measurements from ChEMBL document CHEMBL4145553, “Design, synthesis, and biological evaluation of novel amide and hydrazide based thioether analogs targeting Histone deacteylase (HDAC) enzymes” (Eur J Med Chem, 2018).

How the values were obtained:
Assay type in all cases: functional
[1] = system: HCC 2998; experiment: Growth inhibition of human HCC2998 cells assessed as cell growth at 10^-4 M incubated for 48 hrs by sulforhodamine B assay relative to control; details: HCC 2998, 48 h, read-out: Activity
[2] = system: COLO 205; experiment: Growth inhibition of human COLO205 cells assessed as cell growth at 10^-5 M incubated for 48 hrs by sulforhodamine B assay relative to control; details: COLO 205, 48 h, read-out: Activity
[3] = system: NCI-H522; experiment: Growth inhibition of human NCI-H522 cells assessed as cell growth at 10^-4 M incubated for 48 hrs by sulforhodamine B assay relative to control; details: NCI-H522, 48 h, read-out: Activity
[4] = system: Hs-578T; experiment: Growth inhibition of human Hs 578T cells assessed as cell growth at 10^-4 M incubated for 48 hrs by sulforhodamine B assay relative to control; details: read-out: Activity
[5] = system: M14; experiment: Growth inhibition of human M14 cells assessed as cell growth at 10^-4 M incubated for 48 hrs by sulforhodamine B assay relative to control; details: M14, 48 h, read-out: Activity

Structure (SMILES) | growth at 100 µM [1] [%] | growth at 10 µM [2] [%] | growth at 100 µM [3] [%] | growth at 100 µM [4] [%] | growth at 100 µM [5] [%]
CCS/C(Nc1ccccc1)=C(\C#N)C(=O)Nc1ccc(OC)cc1 | 7 | 1 | -11 | 16 | –
CCS/C(Nc1ccccc1)=C(\C#N)C(=O)N/N=C\c1ccc(Cl)cc1Cl | 35 | – | – | – | -3
